Assay results as given in article PMC12892976, “Alkylation-based optimization of antifungal FPPS inhibitors yields a potent, broad-spectrum lipophilic zoledronate derivative” (mBio, 2025).
Values after ≈ are worked out from the molar mass of the structure shown. Like-named read-outs stand apart in the source and are kept apart here.

Tests used:
[1] = system: Cryptococcus deuterogattii; assay: checkerboard drug interaction (FICI, MICc); format: cell-based; settings: for INH FD (MIC-MICc fold decrease): fold decrease of inhibitor MIC;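 for all read-outs here: simplified diagonal checkerboard screen pairing antifungal drugs with FPPS inhibitors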
Protocol: (§1) Drug interactions between antifungals and FPPS inhibitors were investigated using a simplified checkerboard diagonal screening method ([45]). […] FICIs were determined according to the Loewe additivity model ([17]).

[2] = system: Lomentospora prolificans; assay: MIC broth microdilution (CLSI); format: cell-based; settings: Lomentospora prolificans 80-16-101-2445
Protocol: (§2) Antifungal susceptibility was determined by broth microdilution according to the CLSI guidelines described in M27-Ed4 ([16]).

[3] = system: Trichophyton rubrum; assay: MIC/MFC broth microdilution (CLSI)
Protocol: Antifungal susceptibility was determined by broth microdilution according to the CLSI guidelines described in M27-Ed4 ([16]). […] MFC was determined by back-plating drug-treated cultures from MIC broths onto SDA plates. The MFC was defined as the lowest concentration from which no colonies could be cultured.

[4] = system: Aspergillus udagawae; assay: MIC broth microdilution (CLSI); format: cell-based; settings: Aspergillus udagawae 8G81
Protocol: as §2

[5] = system: Aspergillus fumigatus; assay: checkerboard drug interaction (FICI, MICc); format: cell-based; settings: for INH FD (MIC-MICc fold decrease): fold decrease of inhibitor MIC;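 for all read-outs here: simplified diagonal checkerboard screen pairing antifungals with FPPS inhibitors against Aspergillus fumigatus, with FICI calculated under the Loewe additivity model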
Protocol: as §1

[6] = system: eight fungal species; assay: MIC/MFC summary across the eight fungal species of Table 1; format: cell-based
Protocol: The antifungal activity of these compounds was evaluated according to CLSI guidelines ([16]).

[7] = system: HEK-293T cells; assay: MTT reduction cytotoxicity assay; format: cell-based; settings: Homo sapiens
[8] = system: Saccharomyces cerevisiae; assay: checkerboard drug interaction (FICI, MICc); format: cell-based; set-up: INH MICc / INH MICc (ITR:INH) / INH MICc (KET:INH) / INH MICc (FLC:INH): unit not given beside the values; settings: for INH FD (MIC-MICc fold decrease): fold decrease of inhibitor MIC;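 for all read-outs here: simplified diagonal checkerboard screen pairing antifungals with FPPS inhibitors, FICI calculated under the Loewe additivity model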
[9] = system: Aspergillus flavus; assay: checkerboard drug interaction (FICI, MICc); format: cell-based; set-up: INH MICc (KET:INH) / INH MICc (FLC:INH): unit not given beside the values;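 note: simplified diagonal checkerboard screen pairing azole antifungals with FPPS inhibitors, FICI calculated under the Loewe additivity model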
[10] = system: eight fungal species; assay: checkerboard interaction with azoles, summary across the eight species; format: cell-based
Text: Synergy between lipophilic FPPS inhibitors and azole antifungals was investigated by determining the fractional inhibitory concentration index (FICI) (Fig. 2; Table S1 Fig. S1) ([17]). […]. Derivatives PLA9 and 11, and PDA9, 11, and 12 antagonized azoles in C. albicans, C. neoformans, and C. deuterogattii, yet were largely synergistic in C. glabrata and S. cerevisiae. […].

[11] = C. deuterogattii, FLC:INH combination
[12] = C. deuterogattii, ITR:INH combination
[13] = C. deuterogattii, KET:INH combination
[14] = A. fumigatus, FLC:INH combination
[15] = A. fumigatus, ITR:INH combination
[16] = A. fumigatus, KET:INH combination
[17] = S. cerevisiae, FLC:INH combination
[18] = S. cerevisiae, ITR:INH combination
[19] = S. cerevisiae, KET:INH combination

SMILES: O=P(O)(O)C(O)(Cn1ccnc1)P(=O)(O)O [ZOL, zoledronate]
- FICI ([1]; 5FC:ZOL): 1.02
- FICI ([1]; AMB:ZOL): 2
- FICI [1, 11]: 0.25
- INH MICc ([1]; C. deuterogattii, FLC:INH combination, MIC of the inhibitor in combination with FLC): 8
- FLC FD (MIC-MICc fold decrease) ([1]; C. deuterogattii, FLC:INH combination, fold decrease of FLC MIC): 8
- INH FD (MIC-MICc fold decrease) [1, 11]: 8
- FICI [1, 12]: 0.38
- INH MICc ([1]; C. deuterogattii, ITR:INH combination, MIC of the inhibitor in combination with ITR): 8
- ITR FD (MIC-MICc fold decrease) ([1]; C. deuterogattii, ITR:INH combination, fold decrease of ITR MIC): 4
- INH FD (MIC-MICc fold decrease) [1, 12]: 8
- FICI [1, 13]: 0.31
- INH MICc ([1]; C. deuterogattii, KET:INH combination, MIC of the inhibitor in combination with KET): 16
- KET FD (MIC-MICc fold decrease) ([1]; C. deuterogattii, KET:INH combination, fold decrease of KET MIC): 16
- INH FD (MIC-MICc fold decrease) [1, 13]: 4
- FICI ([1]; CAS:ZOL): 1.5
- FICI ([1]; FLC:ZOL): 0.25
- FICI ([1]; ITR:ZOL): 0.38
- FICI ([1]; KET:ZOL): 0.31
- FICI ([1]; VOR:ZOL): 0.5
- bisphosphonate MICc ([1]; ZOL with 5FC): 128
- bisphosphonate MICc ([1]; ZOL with AMB): 128
- bisphosphonate MICc ([1]; ZOL with CAS): 64
- bisphosphonate MICc ([1]; ZOL with FLC): 8
- bisphosphonate MICc ([1]; ZOL with ITR): 8
- bisphosphonate MICc ([1]; ZOL with KET): 16
- bisphosphonate MICc ([1]; ZOL with VOR): 32
- FICI ([1]; with FLC, Cryptococcus deuterogattii): 0.25
- FICI ([1]; with ITR, Cryptococcus deuterogattii): 0.38
- FICI ([1]; with KET, Cryptococcus deuterogattii): 0.31
- MIC / MEC [2]: >256 µg/mL
- MFC ([3]; Trichophyton rubrum): > 128 µg/mL
- MIC ([3]; Trichophyton rubrum): 128 µg/mL (≈ 470 µM)
- MIC / MEC ([3]; Trichophyton rubrum R-218): 128 µg/mL (≈ 470 µM)
- MIC / MEC [4]: 256 µg/mL (≈ 941 µM)
- FICI ([5]; 5FC:ZOL): 2
- FICI [5, 14]: 0.75
- FLC MICc ([5]; A. fumigatus, FLC:INH combination, MIC of FLC in combination with the inhibitor): 64
- INH MICc ([5]; A. fumigatus, FLC:INH combination, MIC of the inhibitor in combination with FLC): 64
- FLC FD (MIC-MICc fold decrease) ([5]; A. fumigatus, FLC:INH combination, fold decrease of FLC MIC): 2
- INH FD (MIC-MICc fold decrease) [5, 14]: 4
- FICI [5, 15]: 0.51
- ITR MICc ([5]; A. fumigatus, ITR:INH combination, MIC of ITR in combination with the inhibitor): 0.063
- INH MICc ([5]; A. fumigatus, ITR:INH combination, MIC of the inhibitor in combination with ITR): 2
- ITR FD (MIC-MICc fold decrease) ([5]; A. fumigatus, ITR:INH combination, fold decrease of ITR MIC): 2
- INH FD (MIC-MICc fold decrease) [5, 15]: 128
- FICI [5, 16]: 0.75
- KET MICc ([5]; A. fumigatus, KET:INH combination, MIC of KET in combination with the inhibitor): 2
- INH MICc ([5]; A. fumigatus, KET:INH combination, MIC of the inhibitor in combination with KET): 64
- KET FD (MIC-MICc fold decrease) ([5]; A. fumigatus, KET:INH combination, fold decrease of KET MIC): 2
- INH FD (MIC-MICc fold decrease) [5, 16]: 4
- FICI ([5]; AMB:ZOL): 1.03
- FICI ([5]; CAS:ZOL): 0.75
- FICI ([5]; FLC:ZOL): 0.75
- FICI ([5]; ITR:ZOL): 0.51
- FICI ([5]; KET:ZOL): 0.75
- FICI ([5]; VOR:ZOL): 0.75
- bisphosphonate MICc ([5]; ZOL with 5FC): 512
- bisphosphonate MICc ([5]; ZOL with AMB): 16
- bisphosphonate MICc ([5]; ZOL with CAS): 128
- bisphosphonate MICc ([5]; ZOL with FLC): 64
- bisphosphonate MICc ([5]; ZOL with ITR): 2
- bisphosphonate MICc ([5]; ZOL with KET): 128
- bisphosphonate MICc ([5]; ZOL with VOR): 64
- FICI ([5]; with FLC, Aspergillus fumigatus): 0.75
- FICI ([5]; with ITR, Aspergillus fumigatus): 0.51
- FICI ([5]; with KET, Aspergillus fumigatus): 0.75
- Geometric mean MFC ([6]; across eight species): 181.0 µg/mL
- Geometric mean MIC ([6]; across eight species): 98.7 µg/mL
- MFC ([6]; across eight species, read-out: Geometric mean MFC): 181 µg/mL (≈ 665 µM)
- MIC ([6]; geometric mean across eight species, read-out: GM fungal MIC): 98.7 µg/mL (≈ 363 µM)
- MIC ([6]; read-out: Geometric mean MIC): 98.7 µg/mL (≈ 363 µM)
- IC50 ([7]; HEK-293T, read-out: HEK IC50): > 256 µg/mL
- IC50 ([7]; HEK-293T cells, projected value, read-out: predicted IC50): > 256 µg/mL
- FICI ([8]; 5FC:ZOL): 1.25
- FICI ([8]; AMB:ZOL): 2.5
- FICI ([8]; CAS:ZOL): 1.01
- FICI ([8]; FLC:ZOL): 0.38
- FICI ([8]; ITR:ZOL): 0.5
- FICI ([8]; KET:ZOL): 0.25
- FICI [8, 17]: 0.38
- FLC MICc ([8]; S. cerevisiae, FLC:INH combination, MIC of FLC in combination with the inhibitor): 1
- INH MICc ([8]; S. cerevisiae, FLC:INH combination, MIC of the inhibitor in combination with FLC): 32
- FLC FD (MIC-MICc fold decrease) ([8]; S. cerevisiae, FLC:INH combination, fold decrease of FLC MIC): 4
- INH FD (MIC-MICc fold decrease) [8, 17]: 8
- FICI [8, 18]: 0.5
- ITR MICc ([8]; S. cerevisiae, ITR:INH combination, MIC of ITR in combination with the inhibitor): 0.063
- INH MICc ([8]; S. cerevisiae, ITR:INH combination, MIC of the inhibitor in combination with ITR): 64
- ITR FD (MIC-MICc fold decrease) ([8]; S. cerevisiae, ITR:INH combination, fold decrease of ITR MIC): 4
- INH FD (MIC-MICc fold decrease) [8, 18]: 4
- FICI [8, 19]: 0.25
- KET MICc ([8]; S. cerevisiae, KET:INH combination, MIC of KET in combination with the inhibitor): 0.25
- INH MICc ([8]; S. cerevisiae, KET:INH combination, MIC of the inhibitor in combination with KET): 32
- KET FD (MIC-MICc fold decrease) ([8]; S. cerevisiae, KET:INH combination, fold decrease of KET MIC): 8
- INH FD (MIC-MICc fold decrease) [8, 19]: 8
- FICI ([8]; VOR:ZOL): 0.75
- bisphosphonate MICc ([8]; ZOL with 5FC): 64
- bisphosphonate MICc ([8]; ZOL with AMB): 128
- bisphosphonate MICc ([8]; ZOL with CAS): 2
- bisphosphonate MICc ([8]; ZOL with FLC): 32
- bisphosphonate MICc ([8]; ZOL with ITR): 64
- bisphosphonate MICc ([8]; ZOL with KET): 32
- bisphosphonate MICc ([8]; ZOL with VOR): 64
- FICI ([8]; with FLC, Saccharomyces cerevisiae): 0.38
- FICI ([8]; with ITR, Saccharomyces cerevisiae): 0.50
- FICI ([8]; with KET, Saccharomyces cerevisiae): 0.25
- FICI ([9]; 5FC:ZOL): 2
- FICI (FLC:INH) ([9]; A. flavus, Fractional Inhibitory Concentration Index, fluconazole + inhibitor): 0.63
- FICI (ITR:INH) ([9]; A. flavus, Fractional Inhibitory Concentration Index, itraconazole + inhibitor): 1.13
- FICI (KET:INH) ([9]; A. flavus, Fractional Inhibitory Concentration Index, ketoconazole + inhibitor): 1.5
- INH MICc (FLC:INH) ([9]; A. flavus, MIC of the inhibitor in combination with fluconazole): 32
- INH MICc (ITR:INH) ([9]; A. flavus, MIC of the inhibitor in combination with itraconazole): 32
- INH MICc (KET:INH) ([9]; A. flavus, MIC of the inhibitor in combination with ketoconazole): 128
- FLC FD (FLC:INH) ([9]; A. flavus, MIC-MICc fold decrease of fluconazole, negative = increase): 2
- ITR FD (ITR:INH) ([9]; A. flavus, MIC-MICc fold decrease of itraconazole, negative = increase): 1
- KET FD (KET:INH) ([9]; A. flavus, MIC-MICc fold decrease of ketoconazole, negative = increase): 1
- INH FD (FLC:INH) ([9]; A. flavus, MIC-MICc fold decrease of the inhibitor, with fluconazole): 8
- INH FD (ITR:INH) ([9]; A. flavus, MIC-MICc fold decrease of the inhibitor, with itraconazole): 8
- INH FD (KET:INH) ([9]; A. flavus, MIC-MICc fold decrease of the inhibitor, with ketoconazole): 2
- FICI ([9]; AMB:ZOL): 0.63
- FICI ([9]; CAS:ZOL): 1
- FICI ([9]; FLC:ZOL): 0.56
- FICI ([9]; ITR:ZOL): 1.06
- FICI ([9]; KET:ZOL): 1.25
- FICI ([9]; VOR:ZOL): 1
- bisphosphonate MICc ([9]; ZOL with 5FC): 512
- bisphosphonate MICc ([9]; ZOL with AMB): 64
- bisphosphonate MICc ([9]; ZOL with CAS): 256
- bisphosphonate MICc ([9]; ZOL with FLC): 32
- bisphosphonate MICc ([9]; ZOL with ITR): 32
- bisphosphonate MICc ([9]; ZOL with KET): 128
- bisphosphonate MICc ([9]; ZOL with VOR): 256
- FICI ([9]; with FLC, Aspergillus flavus): 0.63
- FICI ([9]; with ITR, Aspergillus flavus): 1.13
- FICI ([9]; with KET, Aspergillus flavus): 1.50
- effect on azole MIC in combination ([10]; across all species tested): consistently reduced the MIC of the azole
- antagonism with azole drugs ([10]; any of the azole drugs in any species tested): no antagonism
- GM fungal MICc ([10]; geometric mean MIC in combination with azoles): 14.3
